This note sets out measurements from patent publication US20150322051A1, “Macrocyclic picolinamides as fungicides” (Dow AgroSciences LLC, priority 2014, published 2015).

Data set [1] concerns Puccinia triticina; synonym: Puccinia recondita f. sp. tritici (PUCCRT). Nature of the data set: Wheat brown rust (PUCCRT) whole-plant fungicidal test. Format: in vivo. The note with it: topical; for pest or weed control at 121.5 g/ha: low volume (track spray) application, 121.5 g/H; for pest or weed control at 100 ppm: high volume application.
The subject of data set [2] is Mycosphaerella graminicola; anamorph: Septoria tritici (SEPTTR). Description: Leaf blotch of wheat (SEPTTR) whole-plant fungicidal test. As to conditions: Zymoseptoria tritici, topical; for pest or weed control at 121.5 g/ha: low volume (track spray) application, 121.5 g/H; for pest or weed control at 100 ppm: high volume application. Format: in vivo.
[3] abbreviates: 24 h, 1 Day Protectant, read-out: Low Volume activity at 121.5 g/H PUCCRT 1DP (% disease control rating).
[4] abbreviates: 72 h, 3 Day Curative, read-out: Low Volume activity at 121.5 g/H PUCCRT 3DC (% disease control rating).
[5] abbreviates: 24 h, 1 Day Protectant, read-out: Low Volume activity at 121.5 g/H SEPTTR 1DP (% disease control rating).
Where [6] appears, read: 72 h, 3 Day Curative, read-out: Low Volume activity at 121.5 g/H SEPTTR 3DC (% disease control rating).
Where [7] appears, read: 24 h, 1 Day Protectant, read-out: High Volume activity at 100 ppm PUCCRT 1DP (% disease control rating).
The mark [8] stands for this setting: 72 h, 3 Day Curative, read-out: High Volume activity at 100 ppm PUCCRT 3DC (% disease control rating).
[9] abbreviates: 24 h, 1 Day Protectant, read-out: High Volume activity at 100 ppm SEPTTR 1DP (% disease control rating).
Setting [10] is: 72 h, 3 Day Curative, read-out: High Volume activity at 100 ppm SEPTTR 3DC (% disease control rating).

Read-outs that look alike come from different tables or passages of the source.

Consider `CC(C)C[C@@H]1[C@@H](Cc2ccccc2)CCC[C@H](N)C(=O)O[C@H]1C.Cl`, for which the melting point lay in the range of 221 to 224 °C.
In turn, `C[C@@H]1OC(=O)[C@@H](N)CCC[C@H](CCCc2ccccc2)[C@H]1Cc1ccc(OC(F)(F)F)cc1.Cl` yielded a melting point of 227 to 232 °C.
Compound `C[C@@H]1OC(=O)[C@@H](N)CCC[C@H](Cc2ccc(C(F)(F)F)cc2)[C@H]1Cc1ccc(OC(F)(F)F)cc1.Cl` displayed a melting point of 215 to 217 °C.
In turn, `C[C@@H]1OC(=O)[C@@H](N)CCC[C@H](Cc2ccccc2)[C@H]1Cc1ccc(OC(F)(F)F)cc1.Cl` gave a melting point of 196 to 198 °C.
In turn, `COc1ccnc(C(=O)N[C@H]2CCC[C@H](Cc3ccccc3)[C@@H](CC(C)C)[C@H](C)OC2=O)c1OCOC(C)=O` [Compound 14] displayed a melting point of 60 to 64 °C. Further, the pest or weed control at 121.5 g/ha in data set [1] (setting [3]) was over 70%. Also, the pest or weed control at 121.5 g/ha in data set [1] (setting [4]) was under 70%. Further, the pest or weed control at 121.5 g/ha in data set [2] (setting [5]) was over 70%. In data set [2] (setting [6]), the pest or weed control at 121.5 g/ha is over 70%.
The compound `COc1ccnc(C(=O)N[C@H]2CCC[C@H](Cc3ccc(Cl)cc3)[C@@H](Cc3ccccc3)[C@H](C)OC2=O)c1OCOC(C)=O` [Compound 19] came in with a melting point of 98 to 100 °C. Besides, the pest or weed control at 121.5 g/ha in data set [1] (setting [3]) is over 70%. For the same compound, the pest or weed control at 121.5 g/ha in data set [1] (setting [4]) was under 70%. Further, in data set [2] (setting [5]), the pest or weed control at 121.5 g/ha is over 70%. Further, in data set [2] (setting [6]), the pest or weed control at 121.5 g/ha was over 70%.
Regarding `COc1ccnc(C(=O)N[C@H]2CCC[C@H](Cc3ccccc3)[C@@H](CC(C)C)[C@H](C)OC2=O)c1O` [Compound 77], the melting point was in the range of 73 to 76 °C.
For `COc1ccnc(C(=O)N[C@H]2CCC[C@H](Cc3ccc(C(F)(F)F)cc3)[C@@H](Cc3ccccc3)[C@H](C)OC2=O)c1O` [Compound 81], the pest or weed control at 100 ppm in data set [1] (setting [7]) is over 70%; in data set [1] (setting [8]), under 70%; in data set [2] (setting [9]), over 70%; in data set [2] (setting [10]) it was under 70%.
On to `CCC[C@H]1CCC[C@H](NC(=O)c2nccc(OC)c2O)C(=O)O[C@@H](C)[C@@H]1Cc1ccccc1` [Compound 82], for which the pest or weed control at 100 ppm in data set [1] (setting [7]) was over 70%; in data set [1] (setting [8]) it was over 70%; in data set [2] (setting [9]) it was under 70%; in data set [2] (setting [10]), over 70%.
`COc1ccnc(C(=O)N[C@H]2CCC[C@H](CCC(C)C)[C@@H](CCc3ccccc3)[C@H](C)OC2=O)c1O` [Compound 83]: the pest or weed control at 100 ppm in data set [1] (setting [7]) is over 70%; in data set [1] (setting [8]) it was under 70%; in data set [2] (setting [9]) it was over 70%; in data set [2] (setting [10]), under 70%.
As to `COc1ccnc(C(=O)N[C@H]2CCC[C@H](Cc3ccc(Cl)cc3)[C@@H](C3CCCC3)[C@H](C)OC2=O)c1O` [Compound 84], the pest or weed control at 100 ppm was over 70% in data set [1] (setting [7]), under 70% in data set [1] (setting [8]), over 70% in data set [2] (setting [9]) and over 70% in data set [2] (setting [10]).
Consider `COc1ccnc(C(=O)N[C@H]2CCC[C@H](CCCc3ccccc3)[C@@H](CCc3ccccc3)[C@H](C)OC2=O)c1O` [Compound 85], for which the pest or weed control at 100 ppm was over 70% in data set [1] (setting [7]), under 70% in data set [1] (setting [8]), over 70% in data set [2] (setting [9]) and under 70% in data set [2] (setting [10]).
Regarding `COc1ccnc(C(=O)N[C@H]2CCC[C@H](Cc3ccc(C(F)(F)F)cc3)[C@@H](Cc3ccc(F)cc3)[C@H](C)OC2=O)c1O` [Compound 86], the pest or weed control at 100 ppm in data set [1] (setting [7]) was over 70%; in data set [1] (setting [8]), under 70%; in data set [2] (setting [9]), under 70%; in data set [2] (setting [10]), under 70%.
In the case of `COc1ccnc(C(=O)N[C@H]2CCC[C@H](CCC(C)C)[C@@H](C3CCCC3)[C@H](C)OC2=O)c1O` [Compound 87], the pest or weed control at 100 ppm was over 70% in data set [1] (setting [7]), under 70% in data set [1] (setting [8]), over 70% in data set [2] (setting [9]) and under 70% in data set [2] (setting [10]).
Consider `COc1ccnc(C(=O)N[C@H]2CCC[C@H](Cc3ccccc3)[C@@H](CCC(C)C)[C@H](C)OC2=O)c1O` [Compound 88], for which the pest or weed control at 100 ppm in data set [1] (setting [7]) is over 70%; in data set [1] (setting [8]), under 70%; in data set [2] (setting [9]), under 70%; in data set [2] (setting [10]) it was over 70%.
As for `COc1ccnc(C(=O)N[C@H]2CCC[C@H](Cc3ccccc3)[C@@H](c3ccccc3)[C@H](C)OC2=O)c1O` [Compound 90], the pest or weed control at 100 ppm in data set [1] (setting [7]), in data set [1] (setting [8]), in data set [2] (setting [9]) and in data set [2] (setting [10]) was over 70% in each case.
On to `CCC[C@H]1CCC[C@H](NC(=O)c2nccc(OC)c2O)C(=O)O[C@@H](C)[C@@H]1c1ccccc1` [Compound 91], for which the pest or weed control at 100 ppm in data set [1] (setting [7]) is over 70%; in data set [1] (setting [8]), under 70%; in data set [2] (setting [9]), over 70%; in data set [2] (setting [10]) it was over 70%.
Take `COc1ccnc(C(=O)N[C@H]2CCC[C@H](CCCc3ccccc3)[C@@H](CC(C)C)[C@H](C)OC2=O)c1O` [Compound 92]: the pest or weed control at 100 ppm in data set [1] (setting [7]) is over 70%; in data set [1] (setting [8]), under 70%; in data set [2] (setting [9]), over 70%; in data set [2] (setting [10]), under 70%.
`COc1ccnc(C(=O)N[C@H]2CCC[C@H](CCCc3ccccc3)[C@@H](Cc3ccc(OC(F)(F)F)cc3)[C@H](C)OC2=O)c1O` [Compound 93] had a melting point of 49 to 53 °C. Further, the pest or weed control at 100 ppm in data set [1] (setting [7]) is under 70%. Besides, the pest or weed control at 100 ppm in data set [1] (setting [8]) is under 70%. Moreover, in data set [2] (setting [9]), the pest or weed control at 100 ppm is under 70%. In data set [2] (setting [10]), the pest or weed control at 100 ppm was under 70%.
Take `COc1ccnc(C(=O)N[C@H]2CCC[C@H](CC3CC3)[C@@H](Cc3ccccc3)[C@H](C)OC2=O)c1O` [Compound 94]: the pest or weed control at 121.5 g/ha in data set [1] (setting [3]) was over 70%; in data set [1] (setting [4]) it was under 70%; in data set [2] (setting [5]), over 70%; in data set [2] (setting [6]), over 70%.
`COc1ccnc(C(=O)N[C@H]2CCC[C@H](Cc3ccccc3)[C@@H](Cc3ccc(F)cc3)[C@H](C)OC2=O)c1O` [Compound 95]: the pest or weed control at 121.5 g/ha in data set [1] (setting [3]) was over 70%; in data set [1] (setting [4]), under 70%; in data set [2] (setting [5]) it was over 70%; in data set [2] (setting [6]), over 70%.
Consider `COc1ccnc(C(=O)N[C@H]2CCC[C@H](Cc3ccc(C(F)(F)F)cc3)[C@@H](Cc3ccc(OC(F)(F)F)cc3)[C@H](C)OC2=O)c1O` [Compound 96], for which the pest or weed control at 100 ppm in data set [1] (setting [7]), in data set [1] (setting [8]), in data set [2] (setting [9]) and in data set [2] (setting [10]) was under 70% in each case.
As to `COc1ccnc(C(=O)N[C@H]2CCC[C@H](Cc3ccccc3)[C@@H](Cc3ccc(OC(F)(F)F)cc3)[C@H](C)OC2=O)c1O` [Compound 97], the pest or weed control at 100 ppm in data set [1] (setting [7]) is over 70%; in data set [1] (setting [8]), under 70%; in data set [2] (setting [9]) it was over 70%; in data set [2] (setting [10]) it was under 70%.
As to `COc1ccnc(C(=O)N[C@H]2CCC[C@H](CCCc3ccccc3)[C@@H](Cc3ccccc3)[C@H](C)OC2=O)c1O` [Compound 98], the pest or weed control at 100 ppm in data set [1] (setting [7]) was over 70%; in data set [1] (setting [8]), under 70%; in data set [2] (setting [9]), over 70%; in data set [2] (setting [10]) it was over 70%.
In turn, `C[C@@H]1OC(=O)[C@@H](NC(=O)OC(C)(C)C)CCC[C@H](Cc2ccc(C(F)(F)F)cc2)[C@H]1Cc1ccc(OC(F)(F)F)cc1` [Compound 152] had a melting point of 65 to 67 °C.
